Patent publication US8470820B2, “Nitrogen-containing heteroaryl derivatives” (Hoffman-La Roche Inc., priority 2010, dated 2013)

target: human PDE10A (Homo sapiens (Human), UniProt Q9Y233); assay: human PDE10A full length Scintillation Proximity Assay (SPA); type: biochemical; details: 50 nM cGMP and 50 nM [3H]-cGMP, 20 minutes at room temperature, read-out: PDE10A inhibition IC50
Description: The following test was carried out in order to determine the activity of the compounds of the present invention. PDE10 activity of the compounds of the present invention was determined using a Scintillation Proximity Assay (SPA)-based method similar to the one previously described (Fawcett, L. et al., Proc Natl Acad Sci USA (2000) 97(7):3702-3707).
The human PDE10A full length assay was performed in 96-well micro titer plates. The reaction mixture of 50 μl contained 20 mM HEPES pH=7.5/10 mM MgCl2/0.05 mg/ml BSA (Sigma cat. # A-7906), 50 nM cGMP (Sigma, cat. # G6129) and 50 nM [^3H]-cGMP (GE Healthcare, cat. # TRK392 S.A. 13.2Ci/mmol), 3.75 ng/well PDE10A enzyme (Enzo Life Science, Lausen, Switzerland cat # SE-534) with or without a specific test compound. A range of concentrations of the potential inhibitor was used to generate data for calculating the concentration of inhibitor resulting in 50% of the effect (e.g. IC50, the concentration of the competitor inhibiting PDE10A activity by 50%). Non-specific activity was tested without the enzyme. The reaction was initiated by the addition of the substrate solution (cGMP and [^3H]-cGMP) and allowed to progress for 20 minutes at room temperature. The reaction was terminated by adding 25 μA of YSi-SPA scintillation beads (GE Healthcare, cat. # RPNQ0150) in 18 mM zinc sulphate solution (stop reagent). After 1 h under shaking, the plate was centrifuged one minute at 170 g to allow beads to settle. Afterwards, radioactive counts were measured on a Perkin Elmer TopCount Scintillation plate reader.

Sequence of human PDE10A (Q9Y233 other isoform, or with tags, fused parts or gaps): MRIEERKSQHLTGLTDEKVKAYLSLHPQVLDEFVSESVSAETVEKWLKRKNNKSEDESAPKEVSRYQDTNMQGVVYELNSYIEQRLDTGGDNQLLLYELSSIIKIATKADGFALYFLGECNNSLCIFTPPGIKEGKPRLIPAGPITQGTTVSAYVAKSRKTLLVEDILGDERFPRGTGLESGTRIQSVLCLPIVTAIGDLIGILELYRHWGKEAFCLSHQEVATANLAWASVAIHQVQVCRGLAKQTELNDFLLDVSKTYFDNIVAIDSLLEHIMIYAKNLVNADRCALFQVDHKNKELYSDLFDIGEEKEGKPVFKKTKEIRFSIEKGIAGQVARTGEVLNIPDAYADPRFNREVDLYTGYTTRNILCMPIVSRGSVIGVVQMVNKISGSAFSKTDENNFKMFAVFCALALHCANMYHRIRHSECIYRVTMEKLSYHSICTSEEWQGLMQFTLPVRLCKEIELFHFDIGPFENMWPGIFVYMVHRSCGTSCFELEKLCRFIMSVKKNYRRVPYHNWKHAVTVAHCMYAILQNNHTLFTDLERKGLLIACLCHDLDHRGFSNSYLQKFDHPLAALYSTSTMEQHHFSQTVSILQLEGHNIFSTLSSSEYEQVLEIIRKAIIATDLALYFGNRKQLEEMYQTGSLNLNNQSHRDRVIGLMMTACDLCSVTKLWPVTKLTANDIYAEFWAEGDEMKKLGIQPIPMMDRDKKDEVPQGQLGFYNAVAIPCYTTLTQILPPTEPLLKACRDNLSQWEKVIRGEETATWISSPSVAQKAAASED

| Structure (SMILES) | IC50 [nM] |
| --- | --- |
| O=C(Nc1cnc(-c2ccccn2)s1)c1nc(C2CC2)ccc1Nc1cncnc1 [Example 62, 6-Cyclopropyl-3-(pyrimidin-5-ylamino)-pyridine-2-carboxylic acid (2-pyridin-2-yl-thiazol-5-yl)-amide] | 2 |
| CN(C)CCn1nc(-c2ccccn2)cc1NC(=O)c1nc(C2CC2)ccc1Nc1cncnc1 [Example 12, 6-Cyclopropyl-3-(pyrimidin-5-ylamino)-pyridine-2-carboxylic acid [2-(2-dimethylamino-ethyl)-5-pyridin-2-yl-2H-pyrazol-3-yl]-amide] | 1 |
| Cn1nc(-c2ccccn2)cc1NC(=O)c1nc(C(C)(C)C)ncc1Nc1cncnc1 [Example 55, 2-tert-Butyl-5-(pyrimidin-5-ylamino)-pyrimidine-4-carboxylic acid (2-methyl-5-pyridin-2-yl-2H-pyrazol-3-yl)-amide] | 4 |
| CCn1nc(-c2ccccn2)cc1NC(=O)c1nc(C2CC2)ccc1Nc1cncnc1 [Example 30, 6-Cyclopropyl-3-(pyrimidin-5-ylamino)-pyridine-2-carboxylic acid (2-ethyl-5-pyridin-2-yl-2H-pyrazol-3-yl)-amide] | 5 |
| COCCn1nc(-c2ccccn2)cc1NC(=O)c1nc(C2CC2)ccc1Nc1cncnc1 [Example 38, 6-Cyclopropyl-3-(pyrimidin-5-ylamino)-pyridine-2-carboxylic acid [2-(2-methoxy-ethyl)-5-pyridin-2-yl-2H-pyrazol-3-yl]-amide] | < 1 |
| CN1CCC(n2nc(-c3ccccn3)cc2NC(=O)c2nc(C3CC3)ccc2Nc2cncnc2)CC1 [Example 43, 6-Cyclopropyl-3-(pyrimidin-5-ylamino)-pyridine-2-carboxylic acid [2-(1-methyl-piperidin-4-yl)-5-pyridin-2-yl-2H-pyrazol-3-yl]-amide] | 4 |
| Cn1nc(-c2ccc(Cl)cn2)cc1NC(=O)c1nc(C2CC2)ccc1Nc1cncnc1 [Example 39, 6-Cyclopropyl-3-(pyrimidin-5-ylamino)-pyridine-2-carboxylic acid [5-(5-chloro-pyridin-2-yl)-2-methyl-2H-pyrazol-3-yl]-amide] | 3 |
| O=C(Nc1ccc(-c2ccccn2)s1)c1nc(C2CC2)ccc1Nc1cncnc1 [Example 50, 6-Cyclopropyl-3-(pyrimidin-5-ylamino)-pyridine-2-carboxylic acid (5-pyridin-2-yl-thiophen-2-yl)-amide] | 1 |
| O=C(Nc1cc(-c2ccccn2)nn1CC1CCCCC1)c1nc(C2CC2)ccc1Nc1cncnc1 [Example 32, 6-Cyclopropyl-3-(pyrimidin-5-ylamino)-pyridine-2-carboxylic acid (2-cyclohexylmethyl-5-pyridin-2-yl-2H-pyrazol-3-yl)-amide] | 1 |
| Cn1nc(-c2cccc(Cl)n2)cc1NC(=O)c1nc(C2CC2)ccc1Nc1cncnc1 [Example 41, 6-Cyclopropyl-3-(pyrimidin-5-ylamino)-pyridine-2-carboxylic acid [5-(6-chloro-pyridin-2-yl)-2-methyl-2H-pyrazol-3-yl]-amide] | 3 |
| O=C(Nc1cc(-c2ccccn2)nn1CCc1ccccc1)c1nc(C2CC2)ccc1Nc1cncnc1 [Example 17, 6-Cyclopropyl-3-(pyrimidin-5-ylamino)-pyridine-2-carboxylic acid (2-phenethyl-5-pyridin-2-yl-2H-pyrazol-3-yl)-amide] | 5 |
| O=C(Nc1cc(-c2ccccc2)no1)c1nc(C2CC2)ccc1Nc1cncnc1 [Example 46, 6-Cyclopropyl-3-(pyrimidin-5-ylamino)-pyridine-2-carboxylic acid (3-phenyl-isoxazol-5-yl)-amide] | 612 |
| O=C(Nc1cn(-c2ccccn2)cn1)c1nc(C2CC2)cnc1Nc1cncnc1 [Example 66, 6-Cyclopropyl-3-(pyrimidin-5-ylamino)-pyrazine-2-carboxylic acid (1-pyridin-2-yl-1H-imidazol-4-yl)-amide] | 187 |
| CCc1ccc(Nc2cncnc2)c(C(=O)Nc2cc(-c3ccccn3)nn2CCO)n1 [Example 34, 6-Ethyl-3-(pyrimidin-5-ylamino)-pyridine-2-carboxylic acid [2-(2-hydroxy-ethyl)-5-pyridin-2-yl-2H-pyrazol-3-yl]-amide] | 1 |
| O=C(Nc1cc(-c2ccccn2)nn1CCO)c1nc(C2CC2)ccc1Nc1cncnc1 [Example 10, 6-Cyclopropyl-3-(pyrimidin-5-ylamino)-pyridine-2-carboxylic acid [2-(2-hydroxy-ethyl)-5-pyridin-2-yl-2H-pyrazol-3-yl]-amide] | 2 |
| Cn1nc(-c2ccccn2)cc1NC(=O)c1nc(C2CC2)ccc1Nc1cncnc1 [Example 8, 6-Cyclopropyl-3-(pyrimidin-5-ylamino)-pyridine-2-carboxylic acid (2-methyl-5-pyridin-2-yl-2H-pyrazol-3-yl)-amide] | 5 |
| O=C(Nc1cc(-c2ccc3ccccc3n2)nn1CCO)c1nc(C2CC2)ccc1Nc1cncnc1 [Example 25, 6-Cyclopropyl-3-(pyrimidin-5-ylamino)-pyridine-2-carboxylic acid [2-(2-hydroxy-ethyl)-5-quinolin-2-yl-2H-pyrazol-3-yl]-amide] | < 1 |
| CC(C)n1nc(-c2ccccn2)cc1NC(=O)c1nc(C2CC2)ccc1Nc1cncnc1 [Example 27, 6-Cyclopropyl-3-(pyrimidin-5-ylamino)-pyridine-2-carboxylic acid (2-isopropyl-5-pyridin-2-yl-2H-pyrazol-3-yl)-amide] | 3 |
| COc1ccc(-c2nnc(NC(=O)c3nc(C4CC4)ccc3Nc3cncnc3)s2)cc1 [Example 44, 6-Cyclopropyl-3-(pyrimidin-5-ylamino)-pyridine-2-carboxylic acid [5-(4-methoxy-phenyl)-[1,3,4]thiadiazol-2-yl]-amide] | 1880 |
| O=C(Nc1ccn(-c2ccc(F)cc2)n1)c1nc(C2CC2)ccc1Nc1cncnc1 [Example 6, 6-Cyclopropyl-3-(pyrimidin-5-ylamino)-pyridine-2-carboxylic acid [1-(4-fluoro-phenyl)-1H-pyrazol-3-yl]-amide] | 23 |
| O=C(Nc1cc(-c2ccccn2)no1)c1nc(C2CC2)ccc1Nc1cncnc1 [Example 51, 6-Cyclopropyl-3-(pyrimidin-5-ylamino)-pyridine-2-carboxylic acid (3-pyridin-2-yl-isoxazol-5-yl)-amide] | 4 |
| O=C(Nc1cc(-c2ccccn2)nn1C1CCCCC1)c1nc(C2CC2)ccc1Nc1cncnc1 [Example 14, 6-Cyclopropyl-3-(pyrimidin-5-ylamino)-pyridine-2-carboxylic acid (2-cyclohexyl-5-pyridin-2-yl-2H-pyrazol-3-yl)-amide] | 1 |
| CC(C)c1ncc(Nc2cncnc2)c(C(=O)Nc2cc(-c3ccccn3)nn2C)n1 [Example 53, 2-Isopropyl-5-(pyrimidin-5-ylamino)-pyrimidine-4-carboxylic acid (2-methyl-5-pyridin-2-yl-2H-pyrazol-3-yl)-amide] | 20 |
| Cc1cnc(Nc2cncnc2)c(C(=O)Nc2cc(-c3ccccn3)nn2CCO)n1 [Example 36, 6-Methyl-3-(pyrimidin-5-ylamino)-pyrazine-2-carboxylic acid [2-(2-hydroxy-ethyl)-5-pyridin-2-yl-2H-pyrazol-3-yl]-amide] | 4 |
| COCc1ccc(Nc2cncnc2)c(C(=O)Nc2cc(-c3ccccn3)nn2CCO)n1 [Example 11, 6-Methoxymethyl-3-(pyrimidin-5-ylamino)-pyridine-2-carboxylic acid [2-(2-hydroxy-ethyl)-5-pyridin-2-yl-2H-pyrazol-3-yl]-amide] | 5 |
| Cn1cncc1Cn1nc(-c2ccccn2)cc1NC(=O)c1nc(C2CC2)ccc1Nc1cncnc1 [Example 37, 6-Cyclopropyl-3-(pyrimidin-5-ylamino)-pyridine-2-carboxylic acid [2-(3-methyl-3H-imidazol-4-ylmethyl)-5-pyridin-2-yl-2H-pyrazol-3-yl]-amide] | 2 |
| O=C(Nc1cc(-c2ccc(F)cc2)no1)c1nc(C2CC2)ccc1Nc1cncnc1 [Example 58, 6-Cyclopropyl-3-(pyrimidin-5-ylamino)-pyridine-2-carboxylic acid [3-(4-fluoro-phenyl)-isoxazol-5-yl]-amide] | 2450 |
| O=C(Nc1nnc(-c2cnccn2)s1)c1nc(C2CC2)ccc1Nc1cncnc1 [Example 49, 6-Cyclopropyl-3-(pyrimidin-5-ylamino)-pyridine-2-carboxylic acid (5-pyrazin-2-yl-[1,3,4]thiadiazol-2-yl)-amide] | 744 |
| Cc1ccc(Nc2cncnc2)c(C(=O)Nc2ccn(-c3ccncc3)n2)n1 [Example 5, 6-Methyl-3-(pyrimidin-5-ylamino)-pyridine-2-carboxylic acid (1-pyridin-4-yl-1H-pyrazol-3-yl)-amide] | 48 |
| O=C(Nc1cc(-c2ccc(Br)cc2)no1)c1nc(C2CC2)ccc1Nc1cncnc1 [Example 57, 6-Cyclopropyl-3-(pyrimidin-5-ylamino)-pyridine-2-carboxylic acid [3-(4-bromo-phenyl)-isoxazol-5-yl]-amide] | 781 |
